Experimental data as given in patent US5300298A, “Methods of treating obesity with purine related compounds” (The Pennsylvania Research Corporation, priority 1992, dated 1994).

Test system: warm-blooded animal
Assay: Example II: tested as BW1433 was tested in Example I (obesity; ratio of muscle mass to fat)
Format: in vivo, rats
Experimental: My initial studies were carried out following acute subcutaneous injections of the drug into male Sprague Dawley rats and into lean and into obese Zucker rats. Blood samples (100 microliter) were taken from the tail of the rats and measurements made of serum glycerol^6. Glycerol is an end product of lipolysis and thus an excellent indicator of the rate of whole body lipolysis. […] I discovered that in the absence of the Formula I compound tested, serum glycerol levels only differ slightly when comparing lean and obese animals. Since there is 3-4 times more fat in the obese animal this is good evidence for sluggish lipolysis per g of fat in the obese. The obese animals however seem to mobilize the fat at an earlier time after removal of their food supply (Table 1), since after 6 hours of fasting the obese serum glycerol levels are much higher than the lean.
Next, I studied the effect of chronic treatment with BW1433. For this purpose I employed 2 ml Alzet mini osmotic pumps. Each pump was loaded with 2 ml of a solution containing BW1433 or with vehicle (aqueous solution adjusted to pH II). The amount of BW1433 was adjusted so that the pump delivered either zero, 0.2 mg or 0.4 mg/Kg/hour to each animal. On the first day the animals had the pumps implanted and were given a priming (2 mg/Kg or 4 mg/Kg) dose of the antagonist. Blood was taken prior to surgery and six hours after the animals were removed from their food supply. On each subsequent day animals had free access to food and water overnight, then their food removed for six hours, and a blood sample taken.
In addition to taking blood samples for glycerol analysis, each animal was weighed every day for seven days. After seven days the animals were fasted overnight and a glucose tolerance test given The animals were then sacrificed and 1 ml blood sample taken for serum insulin and serum BW1433 determination drug levels. Insulin levels were measured with RIA kit (Diagnostic Products) and BW1433 levels were measured fluorometrically after HPLC separation at Burroughs Wellcome, Research Triangle Park, North Carolina. […] Nonetheless, when glucose tolerance curves were administered on day 7, drug-related differences could still be seen in all animals studied. […] This is illustrated more clearly in FIG. 4 where the area under the glucose tolerance curve is shown as a bar for each of the 6 groups of animals. […] FIG. 5 is a chart of the change in weight of treated and untreated lean and obese animals. […] The effect on weight change in each case was maximal at day 3, the day when the glycerol values peaked. Based on these remarkable results, the compounds of Formula I can be administered to obese warm-blooded animals as anti-obesity agents, or administered to farm animals to advantageously increase the ratio of muscle mass to fat therein.

CCCn1c(=O)c2nc(-c3ccc(/C=C/C(=O)O)cc3)[nH]c2n(Cc2ccccc2)c1=O [compound 25, (E)-4-(3-benzyl-1,2,3,6-tetrahydro-2,6-dioxo-1-propyl-9H-purin-8-yl)cinnamic acid]
activity in method of treating obesity in a warm-blooded animal and in increasing the ratio of muscle mass to fat in farm animals: active and effective
